According to patent US12378248B2 (The United States of America, as represented by the …, priority 2018, dated 2025):

Assays:
[1] = tested on: wild-type C57BL/6J mice; experiment: Locomotor activity by telemetry after ip dosing; format: in vivo, mouse; conditions: average from dosing to 60 min, mean±SD
Experimental: (§1) Compounds were dosed ip. Tb and activity were measured by telemetry and the averages from dosing to 60 min were calculated. […] Data are for the highest dose used and are mean±SD from 3 to 22 mice/group (usually 5-7). P values are unpaired t-Test vs vehicle-treated controls assayed simultaneously. Vehicle data are mean±SD from all (n=83) vehicle treated mice.

[2] = molecular target: T1, mA1AR (Mus musculus, UniProt Q60612); experiment: Adenosine receptor binding, mA1AR; conditions: (m); Ki; read-out: A1AR % inhibition or Ki (converted)
T1 sequence (Q60612 1-326): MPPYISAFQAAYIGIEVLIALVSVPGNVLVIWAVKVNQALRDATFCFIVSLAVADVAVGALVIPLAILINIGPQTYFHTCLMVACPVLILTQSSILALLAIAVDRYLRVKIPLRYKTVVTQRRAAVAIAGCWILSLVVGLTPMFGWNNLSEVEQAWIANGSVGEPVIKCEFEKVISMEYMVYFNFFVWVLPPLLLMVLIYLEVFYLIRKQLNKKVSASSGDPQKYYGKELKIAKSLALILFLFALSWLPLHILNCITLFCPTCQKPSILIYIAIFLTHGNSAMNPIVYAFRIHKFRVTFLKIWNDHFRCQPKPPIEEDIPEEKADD

[3] = molecular target: muscarinic receptor M5 (Homo sapiens, UniProt P08912); experiment: Off-target interaction determined by the PDSP; format: binding; conditions: read-out: Off-target, receptor (h, unless noted) (Ki, μM): M5
Sequence of muscarinic receptor M5 (P08912 whole entry): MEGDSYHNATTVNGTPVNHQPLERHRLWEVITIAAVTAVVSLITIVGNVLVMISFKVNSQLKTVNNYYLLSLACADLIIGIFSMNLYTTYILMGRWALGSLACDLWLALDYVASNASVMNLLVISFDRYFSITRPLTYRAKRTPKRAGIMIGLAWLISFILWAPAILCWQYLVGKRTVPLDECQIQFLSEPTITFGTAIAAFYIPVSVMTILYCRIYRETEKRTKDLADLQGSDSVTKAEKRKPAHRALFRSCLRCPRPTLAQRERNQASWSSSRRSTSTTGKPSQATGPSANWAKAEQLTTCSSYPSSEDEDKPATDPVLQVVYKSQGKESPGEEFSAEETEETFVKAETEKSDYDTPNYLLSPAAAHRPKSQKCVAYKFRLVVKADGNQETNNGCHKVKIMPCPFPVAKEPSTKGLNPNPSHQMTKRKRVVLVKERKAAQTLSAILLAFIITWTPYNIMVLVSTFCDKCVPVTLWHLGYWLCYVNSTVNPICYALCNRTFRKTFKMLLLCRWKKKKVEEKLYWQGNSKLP

[4] = molecular target: T2, mA3AR (Mus musculus, UniProt Q61618); experiment: Adenosine receptor binding, mA3AR; conditions: for Ki: (m), read-out: A3AR % inhibition or Ki (converted)
T2 sequence (Q61618 1-319): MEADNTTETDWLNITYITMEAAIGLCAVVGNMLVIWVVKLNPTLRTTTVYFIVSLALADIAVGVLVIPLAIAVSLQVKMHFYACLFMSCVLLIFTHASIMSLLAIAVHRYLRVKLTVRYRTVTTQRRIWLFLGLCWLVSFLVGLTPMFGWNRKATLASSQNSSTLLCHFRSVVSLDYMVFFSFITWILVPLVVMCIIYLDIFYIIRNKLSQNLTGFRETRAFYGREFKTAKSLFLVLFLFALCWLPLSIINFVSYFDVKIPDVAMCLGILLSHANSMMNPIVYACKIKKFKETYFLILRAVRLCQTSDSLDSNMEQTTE

[5] = molecular target: T3, serotonin receptor 5HT2C (Homo sapiens, UniProt P28335); experiment: Off-target interaction determined by the PDSP; format: binding; conditions: read-out: Off-target, receptor (h, unless noted) (Ki, μM): 5HT2C
T3 sequence (P28335 33-458): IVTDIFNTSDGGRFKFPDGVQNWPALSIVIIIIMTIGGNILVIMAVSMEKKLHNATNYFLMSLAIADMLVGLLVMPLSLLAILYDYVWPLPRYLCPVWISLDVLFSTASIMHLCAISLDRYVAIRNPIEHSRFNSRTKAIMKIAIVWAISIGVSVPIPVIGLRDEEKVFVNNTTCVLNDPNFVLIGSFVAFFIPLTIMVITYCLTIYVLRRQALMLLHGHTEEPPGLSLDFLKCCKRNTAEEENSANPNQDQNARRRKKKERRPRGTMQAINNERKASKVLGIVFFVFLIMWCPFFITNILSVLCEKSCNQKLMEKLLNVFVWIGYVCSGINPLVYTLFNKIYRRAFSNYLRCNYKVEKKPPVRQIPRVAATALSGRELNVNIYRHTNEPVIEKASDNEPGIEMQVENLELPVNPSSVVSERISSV

[6] = molecular target: mA2AAR (Mus musculus, UniProt Q60613); experiment: Adenosine receptor binding, mA2AAR; conditions: read-out: A2AAR % inhibition (converted)
Sequence of mA2AAR (Q60613 whole entry): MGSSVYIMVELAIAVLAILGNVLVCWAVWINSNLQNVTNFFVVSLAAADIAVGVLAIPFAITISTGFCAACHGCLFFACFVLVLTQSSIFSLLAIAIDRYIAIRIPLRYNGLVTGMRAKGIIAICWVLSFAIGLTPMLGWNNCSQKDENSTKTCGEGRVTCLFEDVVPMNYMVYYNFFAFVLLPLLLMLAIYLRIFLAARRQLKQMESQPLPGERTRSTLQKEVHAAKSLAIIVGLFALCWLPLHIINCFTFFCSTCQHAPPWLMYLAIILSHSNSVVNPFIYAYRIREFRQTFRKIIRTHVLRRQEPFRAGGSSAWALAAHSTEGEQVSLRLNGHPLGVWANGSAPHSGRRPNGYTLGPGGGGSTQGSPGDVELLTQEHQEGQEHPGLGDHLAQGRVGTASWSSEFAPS

[7] = molecular target: T4, hA2AAR (Homo sapiens, UniProt P29274); experiment: Radioligand binding in membranes of HEK293 cells expressing hA2AAR; conditions: read-out: A2AAR % inhibition
T4 construct: expressed in transfected cells; host or cells: HEK293
T4 sequence (P29274 whole entry): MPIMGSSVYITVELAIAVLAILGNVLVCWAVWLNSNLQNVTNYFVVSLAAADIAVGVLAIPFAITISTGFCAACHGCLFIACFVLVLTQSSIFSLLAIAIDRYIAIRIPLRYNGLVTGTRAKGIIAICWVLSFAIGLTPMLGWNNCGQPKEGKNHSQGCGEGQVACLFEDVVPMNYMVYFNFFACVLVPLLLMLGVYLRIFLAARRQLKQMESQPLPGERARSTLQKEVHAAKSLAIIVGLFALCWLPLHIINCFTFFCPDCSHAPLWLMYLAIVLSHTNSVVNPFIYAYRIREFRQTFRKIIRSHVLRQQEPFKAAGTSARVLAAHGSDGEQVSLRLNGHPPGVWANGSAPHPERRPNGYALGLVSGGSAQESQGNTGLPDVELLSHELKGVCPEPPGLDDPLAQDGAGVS

[8] = tested on: wild-type C57BL/6J mice; experiment: Hypothermia (Tb by telemetry) after ip dosing; format: in vivo, mouse; conditions: average from dosing to 60 min, mean±SD
Experimental: as §1

[9] = molecular target: T5, hA3AR (Homo sapiens, UniProt P0DMS8); experiment: Radioligand binding in membranes of CHO cells expressing hA3AR; conditions: read-out: A3AR % inhibition or Ki; for Ki: (h)
T5 construct: expressed in transfected cells; host or cells: CHO
T5 sequence (P0DMS8 1-318): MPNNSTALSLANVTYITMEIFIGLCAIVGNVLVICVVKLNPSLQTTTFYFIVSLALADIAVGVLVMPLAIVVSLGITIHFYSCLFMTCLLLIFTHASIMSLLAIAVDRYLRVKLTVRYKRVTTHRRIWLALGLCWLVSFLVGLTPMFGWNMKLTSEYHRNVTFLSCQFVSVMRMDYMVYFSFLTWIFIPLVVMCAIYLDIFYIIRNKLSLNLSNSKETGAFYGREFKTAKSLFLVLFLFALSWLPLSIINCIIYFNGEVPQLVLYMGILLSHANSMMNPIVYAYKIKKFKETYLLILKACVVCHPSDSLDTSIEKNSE

[10] = molecular target: TSPO (translocator protein) (UniProt P30536); experiment: Off-target interaction determined by the PDSP; format: binding, human; conditions: read-out: Off-target, receptor (h, unless noted) (Ki, μM): TSPO
[11] = molecular target: dopamine transporter (DAT) (Homo sapiens, UniProt Q01959); experiment: Off-target interaction determined by the PDSP; format: binding; conditions: read-out: Off-target, receptor (h, unless noted) (Ki, μM): DAT
[12] = molecular target: T6, hA1AR (Homo sapiens, UniProt P30542); experiment: Radioligand binding in membranes of CHO cells expressing hA1AR, [3H]N6-R-phenylisopropyladenosine; conditions: read-out: A1AR % inhibition or Ki; for Ki: (h)
T6 construct: expressed in transfected cells; host or cells: CHO
T6 sequence (P30542 1-326): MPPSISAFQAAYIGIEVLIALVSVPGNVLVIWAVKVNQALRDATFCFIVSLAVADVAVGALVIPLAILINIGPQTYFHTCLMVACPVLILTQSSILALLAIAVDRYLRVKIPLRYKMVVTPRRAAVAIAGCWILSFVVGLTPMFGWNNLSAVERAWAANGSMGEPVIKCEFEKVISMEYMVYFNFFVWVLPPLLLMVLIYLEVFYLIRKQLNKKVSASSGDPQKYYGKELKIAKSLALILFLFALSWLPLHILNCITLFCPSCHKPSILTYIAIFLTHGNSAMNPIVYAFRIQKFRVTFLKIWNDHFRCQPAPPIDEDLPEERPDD

[13] = molecular target: adrenergic receptor α2A (Homo sapiens, UniProt P08913); experiment: Off-target interaction determined by the PDSP; format: binding; conditions: read-out: Off-target, receptor (h, unless noted) (Ki, μM): α2A
Sequence of adrenergic receptor α2A (P08913 whole entry): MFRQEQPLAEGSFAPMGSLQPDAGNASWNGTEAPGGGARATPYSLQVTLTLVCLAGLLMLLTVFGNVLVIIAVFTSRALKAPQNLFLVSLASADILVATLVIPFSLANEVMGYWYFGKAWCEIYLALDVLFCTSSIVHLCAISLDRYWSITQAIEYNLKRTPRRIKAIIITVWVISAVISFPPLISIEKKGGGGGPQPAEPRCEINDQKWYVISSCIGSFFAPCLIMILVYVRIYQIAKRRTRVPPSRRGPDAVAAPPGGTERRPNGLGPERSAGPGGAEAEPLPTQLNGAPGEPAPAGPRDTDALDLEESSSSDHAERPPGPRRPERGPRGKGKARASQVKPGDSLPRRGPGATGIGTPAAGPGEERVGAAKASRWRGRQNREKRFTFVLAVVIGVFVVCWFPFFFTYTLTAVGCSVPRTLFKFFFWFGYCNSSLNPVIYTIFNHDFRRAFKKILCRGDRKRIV

[14] = molecular target: sigma receptor σ1 (Homo sapiens, UniProt Q99720); experiment: Off-target interaction determined by the PDSP; format: binding; conditions: read-out: Off-target, receptor (h, unless noted) (Ki, μM): σ1
Sequence of sigma receptor σ1 (Q99720 whole entry): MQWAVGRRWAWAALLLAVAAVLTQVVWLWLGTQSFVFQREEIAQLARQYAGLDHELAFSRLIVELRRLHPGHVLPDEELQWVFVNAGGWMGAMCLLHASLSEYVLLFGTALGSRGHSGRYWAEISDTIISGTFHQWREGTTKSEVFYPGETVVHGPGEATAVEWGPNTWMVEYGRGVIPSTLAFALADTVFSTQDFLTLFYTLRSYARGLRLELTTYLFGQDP

[15] = molecular target: serotonin receptor 5HT2B (Homo sapiens, UniProt P41595); experiment: Off-target interaction determined by the PDSP; format: binding; conditions: read-out: Off-target, receptor (h, unless noted) (Ki, μM): 5HT2B
Sequence of serotonin receptor 5HT2B (P41595 whole entry): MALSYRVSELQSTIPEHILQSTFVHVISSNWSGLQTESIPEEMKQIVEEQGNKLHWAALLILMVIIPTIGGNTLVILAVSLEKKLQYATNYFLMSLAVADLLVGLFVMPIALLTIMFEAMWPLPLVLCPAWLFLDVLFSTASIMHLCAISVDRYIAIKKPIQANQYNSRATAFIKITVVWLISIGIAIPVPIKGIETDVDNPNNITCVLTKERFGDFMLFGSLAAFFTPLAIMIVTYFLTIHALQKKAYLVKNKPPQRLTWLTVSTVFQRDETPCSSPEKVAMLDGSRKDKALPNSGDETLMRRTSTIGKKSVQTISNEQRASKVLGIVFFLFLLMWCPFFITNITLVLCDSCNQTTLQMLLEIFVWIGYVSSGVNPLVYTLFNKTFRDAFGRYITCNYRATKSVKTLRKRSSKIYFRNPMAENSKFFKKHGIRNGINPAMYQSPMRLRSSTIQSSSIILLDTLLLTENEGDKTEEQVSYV

[16] = molecular target: sigma receptor σ2 (UniProt Q5BJF2); experiment: Off-target interaction determined by the PDSP; format: binding, human; conditions: read-out: Off-target, receptor (h, unless noted) (Ki, μM): σ2
[17] = molecular target: histamine receptor H2 (Homo sapiens, UniProt P25021); experiment: Off-target interaction determined by the PDSP; format: binding; conditions: read-out: Off-target, receptor (h, unless noted) (Ki, μM): H2
Sequence of histamine receptor H2 (P25021 whole entry): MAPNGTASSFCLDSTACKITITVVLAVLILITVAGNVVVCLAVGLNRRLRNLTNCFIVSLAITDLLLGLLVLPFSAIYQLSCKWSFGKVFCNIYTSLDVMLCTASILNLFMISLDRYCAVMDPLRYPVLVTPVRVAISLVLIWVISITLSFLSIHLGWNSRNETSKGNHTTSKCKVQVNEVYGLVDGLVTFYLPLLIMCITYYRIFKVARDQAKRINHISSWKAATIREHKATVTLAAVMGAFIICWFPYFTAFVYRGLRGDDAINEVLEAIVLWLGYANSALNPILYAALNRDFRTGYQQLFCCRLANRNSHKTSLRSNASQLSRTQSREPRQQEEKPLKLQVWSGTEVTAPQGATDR

[18] = molecular target: muscarinic receptor M3 (Homo sapiens, UniProt P20309); experiment: Off-target interaction determined by the PDSP; format: binding; conditions: read-out: Off-target, receptor (h, unless noted) (Ki, μM): M3
Sequence of muscarinic receptor M3 (P20309 whole entry): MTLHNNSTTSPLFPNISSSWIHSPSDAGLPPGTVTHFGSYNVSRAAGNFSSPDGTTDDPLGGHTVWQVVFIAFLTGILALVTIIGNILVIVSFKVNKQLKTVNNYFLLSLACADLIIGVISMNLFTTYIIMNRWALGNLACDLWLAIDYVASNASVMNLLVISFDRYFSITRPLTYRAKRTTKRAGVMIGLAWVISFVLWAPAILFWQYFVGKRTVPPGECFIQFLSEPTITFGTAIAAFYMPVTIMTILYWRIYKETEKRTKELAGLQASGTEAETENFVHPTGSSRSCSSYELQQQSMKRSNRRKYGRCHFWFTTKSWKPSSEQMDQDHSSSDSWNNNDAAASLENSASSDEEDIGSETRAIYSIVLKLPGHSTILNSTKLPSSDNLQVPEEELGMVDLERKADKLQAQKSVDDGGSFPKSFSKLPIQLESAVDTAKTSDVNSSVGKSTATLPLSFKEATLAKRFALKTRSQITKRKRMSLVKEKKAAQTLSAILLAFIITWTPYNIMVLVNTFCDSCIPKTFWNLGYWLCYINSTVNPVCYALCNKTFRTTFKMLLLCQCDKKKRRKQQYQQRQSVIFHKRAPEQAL

[19] = molecular target: kappa (KOR) opioid receptor (Homo sapiens, UniProt P41145); experiment: Off-target interaction determined by the PDSP; format: binding; conditions: read-out: Off-target, receptor (h, unless noted) (Ki, μM): KOR
Sequence of kappa (KOR) opioid receptor (P41145 whole entry): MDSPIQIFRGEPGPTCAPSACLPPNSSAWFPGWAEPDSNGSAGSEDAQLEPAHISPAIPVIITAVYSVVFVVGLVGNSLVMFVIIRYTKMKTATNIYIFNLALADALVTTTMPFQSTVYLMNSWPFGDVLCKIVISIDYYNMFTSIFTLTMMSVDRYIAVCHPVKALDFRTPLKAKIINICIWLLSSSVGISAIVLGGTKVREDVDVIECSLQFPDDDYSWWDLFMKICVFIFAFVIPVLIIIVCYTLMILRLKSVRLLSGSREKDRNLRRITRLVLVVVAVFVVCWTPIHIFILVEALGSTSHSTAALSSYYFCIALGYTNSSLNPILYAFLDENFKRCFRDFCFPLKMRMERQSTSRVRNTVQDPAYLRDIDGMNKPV

[20] = molecular target: adrenergic receptor β3 (Homo sapiens, UniProt P13945); experiment: Off-target interaction determined by the PDSP; format: binding; conditions: read-out: Off-target, receptor (h, unless noted) (Ki, μM): β3
Sequence of adrenergic receptor β3 (P13945 whole entry): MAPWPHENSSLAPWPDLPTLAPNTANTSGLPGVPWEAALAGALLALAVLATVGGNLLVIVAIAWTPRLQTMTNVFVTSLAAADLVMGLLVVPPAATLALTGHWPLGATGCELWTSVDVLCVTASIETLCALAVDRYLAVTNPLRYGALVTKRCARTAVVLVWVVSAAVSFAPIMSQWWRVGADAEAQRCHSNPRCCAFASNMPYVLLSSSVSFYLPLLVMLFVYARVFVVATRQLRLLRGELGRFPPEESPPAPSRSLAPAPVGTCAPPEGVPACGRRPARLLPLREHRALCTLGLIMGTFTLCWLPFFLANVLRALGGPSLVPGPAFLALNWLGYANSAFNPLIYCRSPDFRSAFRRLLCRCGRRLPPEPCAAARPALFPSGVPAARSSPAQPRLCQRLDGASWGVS

[21] = molecular target: histamine receptor H3 (Homo sapiens, UniProt Q9Y5N1); experiment: Off-target interaction determined by the PDSP; format: binding; conditions: read-out: Off-target, receptor (h, unless noted) (Ki, μM): H3
Sequence of histamine receptor H3 (Q9Y5N1 whole entry): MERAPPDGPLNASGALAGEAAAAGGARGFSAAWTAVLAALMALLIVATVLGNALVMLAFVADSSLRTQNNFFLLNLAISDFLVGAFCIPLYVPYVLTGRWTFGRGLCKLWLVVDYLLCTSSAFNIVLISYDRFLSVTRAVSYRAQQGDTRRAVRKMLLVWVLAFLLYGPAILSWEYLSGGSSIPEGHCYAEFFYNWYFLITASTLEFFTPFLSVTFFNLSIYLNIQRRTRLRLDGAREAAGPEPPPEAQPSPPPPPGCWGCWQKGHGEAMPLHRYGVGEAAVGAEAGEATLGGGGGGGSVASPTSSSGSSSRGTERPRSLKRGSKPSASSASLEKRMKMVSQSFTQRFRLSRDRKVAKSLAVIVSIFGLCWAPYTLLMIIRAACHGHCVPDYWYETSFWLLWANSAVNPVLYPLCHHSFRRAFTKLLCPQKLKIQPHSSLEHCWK

Row | Compound | Ki [2] [nM] | Ki [4] [nM] | Ki [5] [µM] | inhibition at 10 µM [6] [%] | inhibition at 10 µM [7] [%] | inhibition at 10 µM [9] [%] | Ki [10] [µM] | Ki [12] [nM] | Ki [15] [µM] | Ki [16] [µM] | Ki [9] [nM] | Activity (counts) ([1]; 10 mg/kg ip) | Tb (° C.) ([8]; 10 mg/kg ip) [°C] | also measured
1 | O[C@H]1[C@H](n2cnc3c(NC(C4CCC4)C4CCC4)nc(Cl)nc32)[C@H]2C[C@@]2(CCl)[C@H]1O [Compound 27, (1S,2R,3S,4R,5S)-4-(2-Chloro-6-((dicyclobutylmethyl)amino)-9H-purin-9-yl)-1-(chloromethyl)bicyclo[3.1.0]hexane-2,3-diol] | 11.2 |  | 1.75 | 20 | 17 ± 24 |  | 2.89 | 120 ± 23 |  | 0.349 | 3820 ± 1820 | 18.9 ± 10.2 | 36.5 ± 0.6 | Ki [17]: 2.6 µM
2 | CCOC(=O)[C@@]12C[C@@H]1[C@@H](n1cnc3c(NC(C4CCC4)C4CCC4)nc(Cl)nc31)[C@H](O)[C@@H]2O [Compound 35, Ethyl (1S,2R,3S,4R,5S)-4-(2-Chloro-6-((dicyclobutylmethyl)amino)-9H-purin-9-yl)-2,3-dihydroxybicyclo[3.1.0]hexane-1-carboxylate] |  |  | 0.089 |  | 57 ± 12 |  |  | 73.8 ± 14.2 | 0.097 | 2.02 | 1160 ± 300 |  |  | Ki [18]: 5.9 µM
3 | COC(=O)c1ncn([C@H]2[C@H](O)[C@H](O)[C@]3(CO)C[C@H]23)n1 [Compound 39, Methyl 1-((1S,2R,3S,4R,5R)-3,4-dihydroxy-5-(hydroxymethyl)bicyclo[3.1.0]hexan-2-yl)-1H-1,2,4-triazole-3-carboxylate] | 2990 ± 80 |  |  |  | 14 ± 5 | 22 ± 4 |  |  |  | 1.72 |  |  |  | inhibition at 10 µM ([4]; read-out: A3AR % inhibition or Ki): 15 ± 2%; Ki [20]: 1.42 µM; Ki [21]: 4.52 µM; inhibition at 10 µM [12]: 6 ± 4%

Second part, led by results:

Row | Ki [2] [nM] | Ki [4] [nM] | Ki [5] [µM] | inhibition at 10 µM [6] [%] | inhibition at 10 µM [7] [%] | inhibition at 10 µM [9] [%] | Ki [10] [µM] | Ki [12] [nM] | Ki [15] [µM] | Ki [16] [µM] | Ki [9] [nM] | Compound | Activity (counts) ([1]; 10 mg/kg ip) | Tb (° C.) ([8]; 10 mg/kg ip) [°C] | also measured
4 | 2.47 | 612 | 0.238 | 26 | 55 ± 5 | 25 ± 2 | 2.93 | 8.96 ± 1.02 |  |  |  | OC[C@@]12C[C@@H]1[C@@H](n1cnc3c(NC(C4CCC4)C4CCC4)nc(Cl)nc31)[C@H](O)[C@@H]2O [Compound 25, (1R,2R,3S,4R,5S)-4-(2-Chloro-6-((dicyclobutylmethyl)amino)-9H-purin-9-yl)-1-(hydroxymethyl)bicyclo[3.1.0]hexane-2,3-diol] | 18.4 ± 3.2 | 36.6 ± 0.2 | Ki [3]: 3 µM; Ki [11]: 4.75 µM
5 | 1.05 | 934 |  |  | 38 ± 3 | 49 ± 4 | 2.02 | 32.7 ± 12.4 | 2.01 | 1.17 |  | O[C@H]1[C@H](n2cnc3c(NC(C4CCC4)C4CCC4)ncnc32)[C@H]2C[C@@]2(CCl)[C@H]1O [Compound 26, (1S,2R,3S,4R,5S)-1-(Chloromethyl)-4-(6-((dicyclobutylmethyl)amino)-9H-purin-9-yl)bicyclo[3.1.0]hexane-2,3-diol] |  |  | Activity (counts) ([1]; 3 mg/kg ip): 14.8 ± 1.7 counts; Ki [13]: 6.8 µM; Ki [14]: 1.5 µM; Tb (° C.) ([8]; 3 mg/kg ip): 35.9 ± 0.5 °C
6 | 1.56 | 447 |  | 23 |  |  |  | 17.6 ± 5.3 | 0.718 |  | 127 ± 29 | O=C(NCCO)[C@@]12C[C@@H]1[C@@H](n1cnc3c(N[C@H]4C[C@H]5CC[C@@H]4C5)nc(Cl)nc31)[C@H](O)[C@@H]2O [Compound 37, (1S,2R,3S,4R,5S)-4-(6-(((1R,2S,4S)-bicyclo[2.2.1]heptan-2-yl)amino)-2-chloro-9H-purin-9-yl)-2,3-dihydroxy-N-(2-hydroxyethyl)bicyclo[3.1.0]hexane-1-carboxamide] |  |  | Ki [19]: 2.63 µM; Ki ([7]; (h), values without % sign (Ki)): 5400 nM
